# Earlier results in patent publication US12110270B2, “Systems and methods for generation of hyperpolarized materials” (NVISION IMAGING TECHNOLOGIES GMBH, priority 2021, dated 2024).
# Like-named read-outs stand apart in the source and are kept apart here.
compound,measurement,setting,value
CC(=O)O [acetic acid],maximal mole fraction in n-heptane,14.8° C.,0.935
same,maximal mole fraction in n-heptane,−29.2° C.,0.02
